What was measured:
Format in all cases: cell-based
human K905N Nav1.2 = molecular target: T1, human K905N Nav1.2 (Homo sapiens, UniProt Q99250, K905N); assay: Whole-cell patch clamp of sodium currents (INa) in CHO cells transiently expressing K905N Nav1.2; details: K905N Nav1.2, CHO cells, mean±SEM
T1 construct: expressed in transfected cells; host or cells: CHO cells

[1] = molecular target: T2, human wild-type (WT) Nav1.2 (Homo sapiens, UniProt Q99250); assay: Whole-cell patch clamp of sodium currents (INa) in CHO cells transiently expressing wild-type Nav1.2; details: WT Nav1.2, CHO cells, mean±SEM
T2 construct: expressed in transfected cells; host or cells: CHO cells
T2 sequence (Q99250 whole entry): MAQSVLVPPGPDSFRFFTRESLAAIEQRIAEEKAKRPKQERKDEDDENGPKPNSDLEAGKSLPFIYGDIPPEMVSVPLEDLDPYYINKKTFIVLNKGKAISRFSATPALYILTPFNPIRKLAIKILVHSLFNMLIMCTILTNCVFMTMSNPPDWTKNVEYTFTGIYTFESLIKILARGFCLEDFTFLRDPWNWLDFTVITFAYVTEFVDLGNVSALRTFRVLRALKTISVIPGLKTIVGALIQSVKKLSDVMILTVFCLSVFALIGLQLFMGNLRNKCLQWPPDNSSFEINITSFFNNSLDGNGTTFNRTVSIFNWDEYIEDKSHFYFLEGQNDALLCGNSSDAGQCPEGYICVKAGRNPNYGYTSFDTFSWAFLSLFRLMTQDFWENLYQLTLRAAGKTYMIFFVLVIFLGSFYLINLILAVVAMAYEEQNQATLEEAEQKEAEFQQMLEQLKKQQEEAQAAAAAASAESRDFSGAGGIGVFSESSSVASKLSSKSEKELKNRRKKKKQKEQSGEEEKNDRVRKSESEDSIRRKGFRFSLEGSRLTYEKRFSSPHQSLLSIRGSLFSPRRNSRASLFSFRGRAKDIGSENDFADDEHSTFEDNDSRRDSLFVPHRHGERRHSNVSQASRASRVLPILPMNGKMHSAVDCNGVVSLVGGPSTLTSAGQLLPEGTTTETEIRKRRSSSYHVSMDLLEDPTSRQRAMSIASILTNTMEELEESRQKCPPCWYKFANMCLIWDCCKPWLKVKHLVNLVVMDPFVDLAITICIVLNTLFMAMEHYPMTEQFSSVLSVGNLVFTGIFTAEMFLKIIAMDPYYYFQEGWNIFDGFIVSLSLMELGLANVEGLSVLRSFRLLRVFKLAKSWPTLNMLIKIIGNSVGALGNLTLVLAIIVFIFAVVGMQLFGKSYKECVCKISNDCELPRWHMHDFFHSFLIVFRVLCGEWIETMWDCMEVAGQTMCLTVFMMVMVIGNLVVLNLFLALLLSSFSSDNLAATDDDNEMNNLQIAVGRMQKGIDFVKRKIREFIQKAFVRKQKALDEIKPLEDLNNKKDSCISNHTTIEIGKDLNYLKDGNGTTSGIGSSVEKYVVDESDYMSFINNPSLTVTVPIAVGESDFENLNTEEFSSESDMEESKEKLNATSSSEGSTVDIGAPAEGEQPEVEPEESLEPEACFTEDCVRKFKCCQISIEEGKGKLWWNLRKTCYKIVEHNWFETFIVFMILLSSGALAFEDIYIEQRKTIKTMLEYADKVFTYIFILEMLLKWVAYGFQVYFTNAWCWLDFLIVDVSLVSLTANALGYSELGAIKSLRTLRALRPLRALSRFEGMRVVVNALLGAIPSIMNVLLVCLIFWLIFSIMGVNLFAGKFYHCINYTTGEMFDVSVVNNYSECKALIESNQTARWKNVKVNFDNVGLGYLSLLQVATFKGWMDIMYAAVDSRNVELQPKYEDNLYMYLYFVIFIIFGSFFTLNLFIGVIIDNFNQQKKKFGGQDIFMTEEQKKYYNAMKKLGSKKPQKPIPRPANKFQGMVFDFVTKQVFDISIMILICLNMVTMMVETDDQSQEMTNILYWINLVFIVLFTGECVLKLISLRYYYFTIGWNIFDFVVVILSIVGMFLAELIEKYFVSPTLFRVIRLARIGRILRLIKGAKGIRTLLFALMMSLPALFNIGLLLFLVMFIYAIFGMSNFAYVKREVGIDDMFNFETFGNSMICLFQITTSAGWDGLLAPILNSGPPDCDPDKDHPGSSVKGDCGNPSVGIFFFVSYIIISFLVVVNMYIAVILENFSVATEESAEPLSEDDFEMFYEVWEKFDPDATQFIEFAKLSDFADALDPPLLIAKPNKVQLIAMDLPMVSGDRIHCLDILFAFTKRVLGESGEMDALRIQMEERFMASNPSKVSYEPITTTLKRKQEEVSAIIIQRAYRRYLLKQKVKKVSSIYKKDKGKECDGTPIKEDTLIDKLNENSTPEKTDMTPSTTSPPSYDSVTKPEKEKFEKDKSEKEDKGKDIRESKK

human R1882Q Nav1.2 = molecular target: T3, human R1882Q Nav1.2 (Homo sapiens, UniProt Q99250, R1882Q); assay: Whole-cell patch clamp of sodium currents (INa) in CHO cells transiently expressing R1882Q Nav1.2; details: R1882Q Nav1.2, CHO cells, mean±SEM
T3 construct: expressed in transfected cells; host or cells: CHO cells
T3 sequence (Q99250 whole entry R1882Q): as the sequence (Q99250 whole entry) above, with R1882Q counted along it

T1 sequence (Q99250 whole entry K905N): as the sequence (Q99250 whole entry) above, with K905N counted along it

- Hill slope Late INa (human K905N Nav1.2; late INa at 100 ms): 0.55 ± 0.06
- Hill slope Peak INa (human K905N Nav1.2; peak INa): 0.78 ± 0.2
- Hill slope Late INa ([1]; late INa at 100 ms, INaL enhanced with 3 nM ATX-II): 0.94 ± 0.06
- Hill slope Peak INa ([1]; peak INa): 0.63 ± 0.07
- Hill slope Late INa (human R1882Q Nav1.2; late INa at 100 ms): 0.64 ± 0.2
- Hill slope Peak INa (human R1882Q Nav1.2; peak INa): 0.36 ± 0.14
SMILES: O=C1c2cc(-c3ccc(OC(F)(F)F)cc3)ccc2OCCN1Cc1ncccn1 [eleclazine, 4-(pyrimidin-2-ylmethyl)-7-(4-(trifluoromethoxy)phenyl)-3,4-dihydrobenzo[f][1,4]oxazepin-5(2H)-one]

From patent US20200085838A1, “METHODS OF TREATING EPILEPSY AND NEURODEVELOPMENTAL DISORDERS” (Praxis Precision Medicines, Inc., priority 2017, published 2020)
